Measured values published in the NIST ThermoML archive (doi:10.1016/j.fluid.2011.12.029).

Conditions: Liquid, Vibrating tube method

CCCC[n+]1ccccc1.O=S(=O)([O-])C(F)(F)F [1-butylpyridinium trifluoromethanesulfonate]
mass density [kg/m3]
Conditions	303.15 K	308.15 K	313.15 K	318.15 K	323.15 K	328.15 K	333.15 K
100 kPa	1311.77	1307.87	1303.91	1299.91	1296.31	1292.18	1288.27
5000 kPa	1314.63	1310.78	1306.89	1303.07	1298.89	1295.18	1291.41
10000 kPa	1317.44	1313.65	1309.74	1305.66	1302.15	1298.11	1294.46
15000 kPa	1320.2	1316.6	1312.65	1308.66	1304.98	1301.2	1297.41
20000 kPa	1322.82	1319.24	1315.17	1311.4	1307.88	1304.07	1300.4
25000 kPa	1325.53	1321.85	1317.99	1314.14	1310.7	1306.75	1303.31
30000 kPa	1328.06	1324.38	1320.63	1316.74	1313.34	1309.49	1306.06
35000 kPa	1330.48	1326.93	1323.08	1319.52	1315.79	1312.17	1308.77
40000 kPa	1332.93	1329.48	1325.67	1322.07	1318.44	1314.65	1311.33
45000 kPa	1335.28	1331.89	1328.04	1324.29	1321.03	1317.18	1313.93
50000 kPa	1337.67	1333.97	1330.42	1326.61	1323.34	1319.65	1316.36
55000 kPa	1339.98	1336.34	1332.73	1328.88	1325.68	1322	1318.77
60000 kPa	1342.03	1338.51	1334.95	1331.4	1328.01	1324.3	1320.81
65000 kPa	1344.13	1340.54	1337.08	1333.55	1330.03	1326.69	1323.38

CCCC[n+]1ccccc1.F[B-](F)(F)F [1-butylpyridinium tetrafluoroborate]
Conditions	mass density [kg/m3]
283.15 K, 100 kPa	1225.36
283.15 K, 5000 kPa	1227.5
283.15 K, 10000 kPa	1229.65
283.15 K, 15000 kPa	1231.84
283.15 K, 20000 kPa	1233.82
283.15 K, 25000 kPa	1235.92
283.15 K, 30000 kPa	1237.85
283.15 K, 35000 kPa	1239.79
283.15 K, 40000 kPa	1241.64
283.15 K, 45000 kPa	1243.52
283.15 K, 50000 kPa	1245.28
283.15 K, 55000 kPa	1247
283.15 K, 60000 kPa	1248.71
283.15 K, 65000 kPa	1250.41
288.15 K, 100 kPa	1221.64
288.15 K, 5000 kPa	1223.77
288.15 K, 10000 kPa	1225.95
288.15 K, 15000 kPa	1228.23
288.15 K, 20000 kPa	1230.2
288.15 K, 25000 kPa	1232.3
288.15 K, 30000 kPa	1234.24
288.15 K, 35000 kPa	1236.23
288.15 K, 40000 kPa	1238.24
288.15 K, 45000 kPa	1240.13
288.15 K, 50000 kPa	1241.78
288.15 K, 55000 kPa	1243.6
288.15 K, 60000 kPa	1245.23
288.15 K, 65000 kPa	1247.03
293.15 K, 100 kPa	1218.02
293.15 K, 5000 kPa	1220.21
293.15 K, 10000 kPa	1222.35
293.15 K, 15000 kPa	1224.51
293.15 K, 20000 kPa	1226.68
293.15 K, 25000 kPa	1228.73
293.15 K, 30000 kPa	1230.74
293.15 K, 35000 kPa	1232.84
293.15 K, 40000 kPa	1234.73
293.15 K, 45000 kPa	1236.53
293.15 K, 50000 kPa	1238.41
293.15 K, 55000 kPa	1240.31
293.15 K, 60000 kPa	1241.96
293.15 K, 65000 kPa	1243.85
298.15 K, 100 kPa	1214.34
298.15 K, 5000 kPa	1216.62
298.15 K, 10000 kPa	1218.93
298.15 K, 15000 kPa	1221.01
298.15 K, 20000 kPa	1223.33
298.15 K, 25000 kPa	1225.43
298.15 K, 30000 kPa	1227.48
298.15 K, 35000 kPa	1229.43
298.15 K, 40000 kPa	1231.45
298.15 K, 45000 kPa	1233.36
298.15 K, 50000 kPa	1235.32
298.15 K, 55000 kPa	1237.1
298.15 K, 60000 kPa	1238.81
298.15 K, 65000 kPa	1240.44
303.15 K, 100 kPa	1210.91
303.15 K, 5000 kPa	1213.26
303.15 K, 10000 kPa	1215.59
303.15 K, 15000 kPa	1217.74
303.15 K, 20000 kPa	1219.92
303.15 K, 25000 kPa	1222.02
303.15 K, 30000 kPa	1224.11
303.15 K, 35000 kPa	1226.12
303.15 K, 40000 kPa	1228.08
303.15 K, 45000 kPa	1229.97
303.15 K, 50000 kPa	1231.94
303.15 K, 55000 kPa	1233.82
303.15 K, 60000 kPa	1235.58
303.15 K, 65000 kPa	1237.3
308.15 K, 100 kPa	1207.32
308.15 K, 5000 kPa	1209.57
308.15 K, 10000 kPa	1211.82
308.15 K, 15000 kPa	1214.09
308.15 K, 20000 kPa	1216.23
308.15 K, 25000 kPa	1218.48
308.15 K, 30000 kPa	1220.54
308.15 K, 35000 kPa	1222.62
308.15 K, 40000 kPa	1224.5
308.15 K, 45000 kPa	1226.48
308.15 K, 50000 kPa	1228.36
308.15 K, 55000 kPa	1230.34
308.15 K, 60000 kPa	1232.17
308.15 K, 65000 kPa	1234.06
313.15 K, 100 kPa	1203.87
313.15 K, 5000 kPa	1206.23
313.15 K, 10000 kPa	1208.56
313.15 K, 15000 kPa	1210.88
313.15 K, 20000 kPa	1213.11
313.15 K, 25000 kPa	1215.28
313.15 K, 30000 kPa	1217.47
313.15 K, 35000 kPa	1219.51
313.15 K, 40000 kPa	1221.56
313.15 K, 45000 kPa	1223.48
313.15 K, 50000 kPa	1225.54
313.15 K, 55000 kPa	1227.32
313.15 K, 60000 kPa	1229.18
313.15 K, 65000 kPa	1231.01
318.15 K, 100 kPa	1200.36
318.15 K, 5000 kPa	1202.66
318.15 K, 10000 kPa	1205.15
318.15 K, 15000 kPa	1207.31
318.15 K, 20000 kPa	1209.58
318.15 K, 25000 kPa	1211.7
318.15 K, 30000 kPa	1213.85
318.15 K, 35000 kPa	1216.03
318.15 K, 40000 kPa	1218.05
318.15 K, 45000 kPa	1220.04
318.15 K, 50000 kPa	1222.02
318.15 K, 55000 kPa	1223.9
318.15 K, 60000 kPa	1225.83
318.15 K, 65000 kPa	1227.74
323.15 K, 100 kPa	1196.96
323.15 K, 5000 kPa	1199.29
323.15 K, 10000 kPa	1201.77
323.15 K, 15000 kPa	1204.12
323.15 K, 20000 kPa	1206.47
323.15 K, 25000 kPa	1208.68
323.15 K, 30000 kPa	1210.86
323.15 K, 35000 kPa	1212.95
323.15 K, 40000 kPa	1215.03
323.15 K, 45000 kPa	1217
323.15 K, 50000 kPa	1218.98
323.15 K, 55000 kPa	1220.89
323.15 K, 60000 kPa	1222.84
323.15 K, 65000 kPa	1224.65
328.15 K, 100 kPa	1193.36
328.15 K, 5000 kPa	1195.72
328.15 K, 10000 kPa	1198.11
328.15 K, 15000 kPa	1200.54
328.15 K, 20000 kPa	1202.82
328.15 K, 25000 kPa	1205.08
328.15 K, 30000 kPa	1207.36
328.15 K, 35000 kPa	1209.57
328.15 K, 40000 kPa	1211.63
328.15 K, 45000 kPa	1213.66
328.15 K, 50000 kPa	1215.6
328.15 K, 55000 kPa	1217.56
328.15 K, 60000 kPa	1219.5
328.15 K, 65000 kPa	1221.56
333.15 K, 100 kPa	1190.07
333.15 K, 5000 kPa	1192.59
333.15 K, 10000 kPa	1195
333.15 K, 15000 kPa	1197.4
333.15 K, 20000 kPa	1199.91
333.15 K, 25000 kPa	1202.04
333.15 K, 30000 kPa	1204.36
333.15 K, 35000 kPa	1206.49
333.15 K, 40000 kPa	1208.69
333.15 K, 45000 kPa	1210.67
333.15 K, 50000 kPa	1212.88
333.15 K, 55000 kPa	1214.74
333.15 K, 60000 kPa	1216.56
333.15 K, 65000 kPa	1218.57
